# Like-named read-outs stand apart in the source and are kept apart here.
# Tested on: C. parvum strain UGA1
# Assay: C. parvum growth inhibition assay (Nluc luminescence in HCT-8 cells)
# Type: cell-based, Cryptosporidium parvum
# Details: for inhibition at 1 µM / inhibition at 10 µM / EC50: Cryptosporidium parvum; for inhibition at 1 µM / inhibition at 10 µM: HCT-8; for inhibition at 1 µM: read-out: % inh @ 1 uM C. parvum; for inhibition at 10 µM: read-out: % inh @ 10 uM C. parvum; for EC50: HCT-8, 48 h, C. parvum growth inhibition in HCT-8 cells, 48 hours, 6 concentrations 10-0.04 μM
# Method: C. parvum GROWTH INHIBITION ASSAYS
# C. parvum growth inhibition was performed as described in Hulverson M A, Vinayak S, Choi R, Schaefer D A, Castellanos-Gonzalez A, Vidadala R S R, Brooks C F, Herbert G T, Betzer D P, Whitman G R, Sparks H N, Arnold S L M, Rivas K L, Barrett L K, White A C Jr, Maly D J, Riggs M W, Striepen B, Van Voorhis W C, Ojo K K. Bumped-Kinase Inhibitors for Cryptosporidiosis Therapy. J Infect Dis. 2017 Apr. 15; 215(8):1275-1284.
# C. parvum strain UGA1 […] (ATCC, Manassas, VA) were prepared as described below. HCT-8 cells were inoculated onto 96-well plates were grown for 48 hours to 90%-100% confluence. C. parvum oocysts were then incubated for 10 minutes in 10% bleach at room temperature and washed with Dulbecco's phosphate-buffered saline. One thousand oocysts per well were applied to plates with Roswell Park Memorial Institute 1640 (RPMI) medium supplemented with 10% horse serum and 1% penicillin/streptomycin. Compounds of Formula (I), Formula (II), and Formula (III) were added to the plates at different concentrations and the plates were incubated for 48 hours. Following the incubation, the monolayers were lysed for 1 hour before a luciferase reagent was added, and relative luminescence units were determined.
# For certain compounds of Formula I, Formula II, and Formula III, EC50 values were calculated using curves calculated from Prism after analysis of C. parvum growth inhibition at 6 different concentrations: 10, 3.33, 1.11, 0.37, 0.12, and 0.04 μM. […] For certain compounds of Formula I, Formula II, and Formula III, single point inhibition values of 0-33% (activity level D), between 33% and 66% (activity level E), and between 67% and 100% (activity level F) are also shown in Table 1 below.
# [1] = single point inhibition @ 10 uM
# [2] = single point inhibition at 1 uM
# [3] = single point inhibition at 10 uM
SMILES,inhibition at 1 µM [2],inhibition at 10 µM [3],also measured
"O=C(CC1CCOCC1)Nc1cc2[nH]c(-c3ccncc3)cc2cn1 [Example 143, N-(2-(pyridin-4-yl)-1H-pyrrolo[3,2-c]pyridin-6-yl)-2-(tetrahydro-2H-pyran-4-yl)acetamide]",–,–,inhibition at 1 µM (single point inhibition @ 1 uM): 0 to 33%; inhibition at 10 µM [1]: 67 to 100%
"Cc1cc(-c2cc3cnc(NC(=O)C4CC4)cc3n2CCN(C)C)ncn1 [Example 124, N-(1-(2-(dimethylamino)ethyl)-2-(6-methylpyrimidin-4-yl)-1H-pyrrolo[3,2-c]pyridin-6-yl)cyclopropanecarboxamide]",–,–,EC50: > 1 µM
"Cc1cc(Nc2cc3[nH]c(-c4cccnc4)cc3cn2)cc(-n2cncn2)c1 [Example 337, N-(3-methyl-5-(1H-1,2,4-triazol-1-yl)phenyl)-2-(pyridin-3-yl)-1H-pyrrolo[3,2-c]pyridin-6-amine]",0 to 33%,0 to 33%,–
"CC(C)c1cc2cnc(NC3CCOCC3)cc2[nH]1 [Example 359, 2-isopropyl-N-(tetrahydro-2H-pyran-4-yl)-1H-pyrrolo[3,2-c]pyridin-6-amine]",–,–,EC50: > 1 µM
"O=C(Nc1cc2[nH]c(-c3cnc[nH]3)cc2cn1)C1CC1 [Example 330, N-(2-(1H-imidazol-5-yl)-1H-pyrrolo[3,2-c]pyridin-6-yl)cyclopropanecarboxamide]",0 to 33%,0 to 33%,–
"CCOc1nccc(-c2cc3cnc(NC(=O)C4C5CCCCC54)cc3[nH]2)n1 (centres unmarked) [Example 158, N-(2-(2-ethoxypyrimidin-4-yl)-1H-pyrrolo[3,2-c]pyridin-6-yl)bicyclo[4.1.0]heptane-7-carboxamide]",–,–,inhibition at 1 µM (single point inhibition @ 1 uM): 0 to 33%; inhibition at 10 µM [1]: 67 to 100%
"Cn1cnc(-c2cc3cnc(NC4CCOCC4)cc3n2C)c1 [Example 348, 1-methyl-2-(1-methyl-1H-imidazol-4-yl)-N-(tetrahydro-2H-pyran-4-yl)-1H-pyrrolo[3,2-c]pyridin-6-amine]",–,–,EC50: > 1 µM
"Cc1cc(-c2cc3cnc(NC4CCN(C)CC4)cc3n2C)ncn1 [Example 117, 1-methyl-N-(1-methylpiperidin-4-yl)-2-(6-methylpyrimidin-4-yl)-1H-pyrrolo[3,2-c]pyridin-6-amine]",–,–,EC50: > 1 µM
"Cc1nc(-c2cc3cnc(NC(=O)C4CC4)cc3[nH]2)co1 [Example 335, N-(2-(2-methyloxazol-4-yl)-1H-pyrrolo[3,2-c]pyridin-6-yl)cyclopropanecarboxamide]",0 to 33%,0 to 33%,–
"CO[C@H]1CC[C@@H](Nc2cc3[nH]c(-c4cccnc4)cc3cn2)CC1 [Example 228, N-((1s,4s)-4-methoxycyclohexyl)-2-(pyridin-3-yl)-1H-pyrrolo[3,2-c]pyridin-6-amine]",33 to 66%,33 to 66%,–
"CN1CCC(c2cc3cnc(NC(=O)C4CC4)cc3[nH]2)CC1 [Example 255, N-(2-(1-methylpiperidin-4-yl)-1H-pyrrolo[3,2-c]pyridin-6-yl)cyclopropanecarboxamide]",0 to 33%,0 to 33%,–
"COc1nccc(-c2cc3cnc(NC(=O)c4cnn(CC5CCOC5)c4C)cc3[nH]2)n1 (stereo in doubt) [Example 179, (S)-N-(2-(2-methoxypyrimidin-4-yl)-1H-pyrrolo[3,2-c]pyridin-6-yl)-5-methyl-1-((tetrahydrofuran-3-yl)methyl)-1H-pyrazole-4-carboxamide]",–,–,inhibition at 1 µM (single point inhibition @ 1 uM): 0 to 33%; inhibition at 10 µM [1]: 67 to 100%
"CCOc1nccc(-c2cc3cnc(NC(=O)c4cnn(C)c4)cc3[nH]2)n1 [Example 293, N-(2-(2-ethoxypyrimidin-4-yl)-1H-pyrrolo[3,2-c]pyridin-6-yl)-1-methyl-1H-pyrazole-4-carboxamide]",0 to 33%,0 to 33%,–
"Cc1cc(-c2cc3cnc(NC(=O)[C@H]4CCCO4)cc3[nH]2)ccn1 [Example 212, (R)-N-(2-(2-methylpyridin-4-yl)-1H-pyrrolo[3,2-c]pyridin-6-yl)tetrahyrdofuran-2-carboxamide]",–,–,% inh @ 1 uM C. parvum [2]: D (single point inhibition values of 0-33% (activity level D)); % inh @ 10 uM C. parvum [3]: F (between 67% and 100% (activity level F))
"Cn1cc(-c2cc3cnc(Nc4ccc(F)cc4)cc3n2C)cn1 [Example 235, N-(4-fluorophenyl)-1-methyl-2-(1-methyl-1H-pyrazol-4-yl)-1H-pyrrolo[3,2-c]pyridin-6-amine]",0 to 33%,33 to 66%,–
"Cn1cc(C(=O)Nc2cc3[nH]c(-c4ccnc(OCC(F)(F)F)n4)cc3cn2)cn1 [Example 308, 1-methyl-N-(2-(2-(2,2,2-trifluoroethoxy)pyrimidin-4-yl)-1H-pyrrolo[3,2-c]pyridin-6-yl)-1H-pyrazole-4-carboxamide]",0 to 33%,0 to 33%,–
"Cn1c(-c2cccnc2)cc2cnc(Nc3cnn(C4CCOCC4)c3)cc21 [Example 266, 1-methyl-2-(pyridin-3-yl)-N-(1-(tetrahydro-2H-pyran-4-yl)-1H-pyrazol-4-yl)-1H-pyrrolo[3,2-c]pyridin-6-amine]",0 to 33%,0 to 33%,–
"Cn1cc(C(=O)Nc2cc3[nH]c(-c4ccnc(C(F)(F)F)c4)cc3cn2)cn1 [Example 284, 1-methyl-N-(2-(2-(trifluoromethyl)pyridin-4-yl)-1H-pyrrolo[3,2-c]pyridin-6-yl)-1H-pyrazole-4-carboxamide]",0 to 33%,0 to 33%,–
"c1cc(-c2cc3cnc(NC4CCOCC4)cc3[nH]2)nc(N2CCCC2)n1 [Example 372, 2-(2-(pyrrolidin-1-yl)pyrimidin-4-yl)-N-(tetrahydro-2H-pyran-4-yl)-1H-pyrrolo[3,2-c]pyridin-6-amine]",–,–,EC50: < 0.5 µM
"Cn1cc(-c2cc3cnc(NC(=O)C4CC4)cc3[nH]2)cn1 [Example 210, N-(2-(1-methyl-1H-pyrazol-4-yl)-1H-pyrrolo[3,2-c]pyridin-6-yl)cyclopropanecarboxamide]",0 to 33%,67 to 100%,–
"Cc1cc(Nc2cc3[nH]c(-c4ccnc(C#N)c4)cc3cn2)cc(-n2cncn2)c1 [Example 339, 4-(6-(3-methyl-5-(1H-1,2,4-triazol-1-yl)phenylamino)-1H-pyrrolo[3,2-c]pyridin-2-yl)picolinonitrile]",0 to 33%,0 to 33%,–
"Cn1c(-c2ccnc(NCC(F)(F)F)n2)cc2cnc(NC(=O)c3cnn(C4CCOC4)c3)cc21 (stereo in doubt) [Example 142, (R)-N-(1-methyl-2-(2-(2,2,2-trifluoroethylamino)pyrimidin-4-yl)-1H-pyrrolo[3,2-c]pyridin-6-yl)-1-(tetrahydrofuran-3-yl)-1H-pyrazole-4-carboxamide]",–,–,inhibition at 1 µM (single point inhibition @ 1 uM): 67 to 100%; inhibition at 10 µM [1]: 67 to 100%
"Cn1cc(C(=O)Nc2cc3[nH]c(-c4ccnc(C(F)(F)F)n4)cc3cn2)cn1 [Example 287, 1-methyl-N-(2-(2-(trifluoromethyl)pyrimidin-4-yl)-1H-pyrrolo[3,2-c]pyridin-6-yl)-1H-pyrazole-4-carboxamide]",0 to 33%,0 to 33%,–
"O=C(Nc1cc2[nH]c(C(F)(F)F)cc2cn1)C1CCOCC1 [Example 105, N-(2-(trifluoromethyl)-1H-pyrrolo[3,2-c]pyridin-6-yl)tetrahydro-2H-pyran-4-carboxamide]",–,–,EC50: > 1 µM
"Cc1cc(-c2[nH]c3cc(NC4CCOCC4)ncc3c2C(F)(F)F)ccn1 [Example 375, 2-(2-methylpyridin-4-yl)-N-(tetrahydro-2H-pyran-4-yl)-3-(trifluoromethyl)-1H-pyrrolo[3,2-c]pyridin-6-amine]",–,–,EC50: > 1 µM
"Cc1ccc(-c2cc3cnc(NC(=O)C4CC4)cc3n2C)nc1 [Example 347, N-(1-methyl-2-(5-methylpyridin-2-yl)-1H-pyrrolo[3,2-c]pyridin-6-yl)cyclopropanecarboxamide]",–,–,EC50: > 1 µM
"CC(Oc1nccc(-c2cc3cnc(NC(=O)c4cnn(C)c4)cc3[nH]2)n1)C(F)F (centres unmarked) [Example 141, N-(2-(2-(1,1-difluoropropan-2-yloxy)pyrimidin-4-yl)-1H-pyrrolo[3,2-c]pyridin-6-yl)-1-methyl-1H-pyrazole-4-carboxamide]",–,–,inhibition at 1 µM (single point inhibition @ 1 uM): 0 to 33%; inhibition at 10 µM [1]: 67 to 100%
"FC1(F)CC(c2cc3cnc(NC4CCOCC4)cc3[nH]2)C1 [Example 397, 2-(3,3-difluorocyclobutyl)-N-(tetrahydro-2H-pyran-4-yl)-1H-pyrrolo[3,2-c]pyridin-6-amine]",33 to 66%,33 to 66%,–
"c1ccc(Nc2cc3[nH]c(-c4cccnc4)cc3cn2)cc1 [Example 189, N-phenyl-2-(pyridin-3-yl)-1H-pyrrolo[3,2-c]pyridin-6-amine]",–,–,inhibition at 1 µM (single point inhibition @ 1 uM): 0 to 33%; inhibition at 10 µM [1]: 67 to 100%

# Reference: patent US20240124444A1 (Celgene Corporation, priority 2020, published 2024)
